In brackets after ≈: the same amount, converted by molar mass.
Columns and labels:
[1] = system: Candida; experiment: Antimycotic in vivo activity (oral) in candidosis of mice; parameters: species or system mice (SPF-CF1); details: 10-50 mg/kg one hour before and seven hours after infection, result in words
Description: Mice of the SPF-CF1 type were infested intravenously with 1-2×10^6 logarthmically growing Candida cells, which were suspended in physiological saline solution. The animals were treated with, in each case, 10-50 mg/kg of body weight of the products one hour before and seven hours after the infection.

[2] = system: Torulopsis glabrata; experiment: Antimycotic in vitro activity, series dilution test; type: cell-based; details: Nakaseomyces glabratus; meat extract/glucose broth; 5×10^4 germs/ml; 20° C.; 24 to 96 hours
Description: (§1) The in vitro tests were carried out in a series dilution test with germ inocula of on average 5×10^4 germs/ml of substrate. The nutrient medium used was (b) for yeasts: meat extract/glucose broth. The incubation temperature was 20° C. and the duration of incubation was 24 to 96 hours in the case of yeasts and 96 hours in the case of dermatophytes and moulds.

[3] = system: Candida albicans; experiment: as above; type: cell-based; details: meat extract/glucose broth, 5×10^4 germs/ml, 20° C., 24 to 96 hours
Description: as §1

[4] = system: dermatophytes, moulds and yeasts; experiment: Antimycotic in vitro activity, series dilution test (overall action spectrum); type: cell-based; details: result in words
Description: as §1, with “used was (a) for dermatophytes and moulds: Sabourand's milieu d'epreuve, and (b) for” for “used was (b) for”

[5] = system: Trichophyton mentagr.; experiment: Antimycotic in vitro activity, series dilution test; type: cell-based, Trichophyton mentagrophytes; details: Sabourand's milieu d'epreuve, 5×10^4 germs/ml, 20° C., 96 hours
Description: as §1, with “(a)” for “(b)”, “dermatophytes and moulds: Sabourand's milieu d'epreuve, […]” for “yeasts: meat extract/glucose broth.”

[6] = system: Aspergillus fumigatus; experiment: as above; type: cell-based; details: Sabourand's milieu d'epreuve, 5×10^4 germs/ml, 20° C., 96 hours
Description: as §1, with “(a)” for “(b)”, “dermatophytes and moulds: Sabourand's milieu d'epreuve, […]” for “yeasts: meat extract/glucose broth.”

Row | MIC [2] | MIC [3] | MIC [5] | MIC [6] | Structure (SMILES) | antimycotic action in candidosis of mice (in words) [1] | antimycotic action spectrum in vitro [4]
1 |  |  |  |  | CC(C)(n1cncn1)C(O)(Cn1cncn1)c1ccccc1 (stereo not drawn) [Example 4] | good antimycotic action | 
2 | 64 µg/mL (≈ 202 µM) | 16 µg/mL (≈ 50.6 µM) | 16 µg/mL (≈ 50.6 µM) | > 64 µg/mL | CC(C)(n1cncn1)C(O)(Cn1cncn1)c1ccc(F)cc1 (stereo not drawn) [Example 3] | good antimycotic action | good antimycotic action spectrum
3 |  | 64 µg/mL (≈ 157 µM) | ≤ 1 µg/mL | 16 µg/mL (≈ 39.1 µM) | CC(C)(n1cncn1)C(O)(Cn1cncn1)c1ccc(-c2ccc(Cl)cc2)cc1 (stereo not drawn) [Example 6] |  | good antimycotic action spectrum
4 | 64 µg/mL (≈ 178 µM) | 2 µg/mL (≈ 5.55 µM) | 2 µg/mL (≈ 5.55 µM) | 64 µg/mL (≈ 178 µM) | CC(n1cncn1)C(O)(Cn1cncn1)c1ccc(-c2ccccc2)cc1 (stereo not drawn) [Example 10] |  | good antimycotic action spectrum
5 | 32 µg/mL (≈ 75.5 µM) | 4 µg/mL (≈ 9.44 µM) | 8 µg/mL (≈ 18.9 µM) | 64 µg/mL (≈ 151 µM) | CC(C)(n1cncn1)C(O)(Cn1ccnc1)c1ccc(Oc2ccc(Cl)cc2)cc1 (stereo not drawn) [Example 8] |  | good antimycotic action spectrum
6 | 8 µg/mL (≈ 19.6 µM) | 8 µg/mL (≈ 19.6 µM) | 4 µg/mL (≈ 9.81 µM) | 32 µg/mL (≈ 78.4 µM) | CC(C)(n1cncn1)C(O)(Cn1ccnc1)c1ccc(-c2ccc(Cl)cc2)cc1 (stereo not drawn) [Example 9] |  | good antimycotic action spectrum
7 |  |  |  |  | CC(C)(n1cncn1)C(O)(Cn1cncn1)c1ccc(Cl)cc1 (stereo not drawn) [Example 1, 2-(4-chlorophenyl)-1,3-di-(1,2,4-triazol-1-yl)-3-methyl-2-butanol] | good antimycotic action | 
8 | 32 µg/mL (≈ 75.3 µM) | 2 µg/mL (≈ 4.71 µM) | ≤ 1 µg/mL | > 64 µg/mL | CC(C)(n1cncn1)C(O)(Cn1cncn1)c1ccc(Oc2ccc(Cl)cc2)cc1 (stereo not drawn) [Example 5] | good antimycotic action | good antimycotic action spectrum
